Patent US9732078B2, “Therapeutic use of imidazopyridine derivatives” (SANOFI, priority 2012, dated 2017)

Assays:
Type in all cases: cell-based
[1] = tested on: TCC97-7 bladder cancer tumour cells carrying the Ser249Cys mutation of FGF receptor 3; assay: Inhibition of serum-induced proliferation of TCC97-7 bladder cancer cells (count of Hoechst 33342-labelled nuclei after 3 days); details: TCC97-7 cells in presence of serum
Method: To do this, 2000 cells are seeded in the morning in 50 μl of complete medium (Ham-F/12, 1% FCS, 2 mM glutamine, non-essential amino acids, sodium pyruvate, 1% insulin/transferrin/selenium, hydrocortisone). In the evening, 50 μl of the various compounds are added at 0.02, 0.2, 2 or 20 μM after dilution in complete culture medium in order to obtain final concentrations of 0.01, 0.1, 1 and 10 μM. After 3 days, the cell proliferation is evaluated by measuring the number of nuclei at the bottom of each well corresponding to a number of cells. The nuclei are detected by means of labelling with Hoechst 33342 (Invitrogen, ref H3570). 100 μl of Hoechst 33342 diluted to 1/5000th in PBS are added to each well for 30 min at ambient temperature on non-fixed cells. The nuclei are detected by fluorescence at 350 nm at ×2 magnification with an Operetta (PerkinElmer) using the Acapella (PerkinElmer) imaging software and analysed using the Columbus (PerkinElmer) image analysis software. The percentage inhibition of the cell proliferation is calculated by considering the number of nuclei present in the wells in which the TCC97-7 cells are cultured in the absence of FGF-R antagonists to be 0% inhibition. 100% inhibition would correspond to a well no longer containing cells.

[2] = tested on: TCC97-7 bladder cancer tumour cells carrying the Ser249Cys mutation of FGF receptor 3; assay: Cytotoxic effect: percentage of permeabilized (very fluorescent, Hoechst 33342) TCC97-7 cells; details: 3 days
Method: In parallel to their antiproliferative capacity, the potential cytotoxic effect of the FGF-R antagonists is measured by means of quantifying the number of cells of which the membranes are permeabilized. The appearance of pores in the plasma membrane of the cells corresponds to a state of cell death which enables the Hoechst 33342 to penetrate more easily into the cell. This is reflected by a very strong increase in the amount of fluorescence detected in the nuclei. The percentage of cells in a state of cell death is calculated by the ratio between the number of very fluorescent nuclei to the total number of nuclei, multiplied by 100. The observations are carried out in the same way as the quantification of the nuclei for the cell proliferation.

[3] = tested on: TCC97-7 bladder cancer cells carrying the Ser249Cys mutation of FGF receptor 3; assay: Reduction of intracellular ATP content of TCC97-7 cells (Cell Titer-Glo, 3 days, serum-supplemented medium); details: TCC97-7 cells in presence of serum
Method: Evaluation of the Capacity of the FGF-R Antagonists to Reduce the ATP Content of TCC97-7 Bladder Cancer Cells Carrying the Ser249Cys Mutation of FGF Receptor 3, Cultured in a Serum-Supplemented Medium
To do this, 3000 cells are seeded in 50 μl of complete medium (Ham-F/12, 1% FCS, […], non-essential amino acids, sodium pyruvate, 1% insulin/transferrin/selenium, hydrocortisone). 16 hours later, 50 μl of the various compounds are added at 0.2, 2, 20 and 60 μM after dilution in complete culture medium in order to obtain final concentrations of 0.1, 1, 10 and 30 μM. After 3 days, the ATP content of the cells is measured using the Cell Titer-Glo® Luminescent Cell Viability Assay kit (Promega, France) according to the supplier's recommendations. The percentage inhibition of the amount of intracellular ATP is calculated by considering the ATP content of the cells cultured in the absence of antagonist to be 0% inhibition. 100% inhibition would correspond to a well in which the ATP content is zero.

| SMILES | Inhibition of proliferation (%) ([1]; 0.1 μM) | Inhibition of proliferation (%) ([1]; 1 μM) | Inhibition of proliferation (%) ([1]; 10 μM) | Cytotoxicity (% of permeable cells) ([2]; 0.01 μM) [%] | Cytotoxicity (% of permeable cells) ([2]; 0.1 μM) [%] | Cytotoxicity (% of permeable cells) ([2]; 1 μM) [%] | Cytotoxicity (% of permeable cells) ([2]; 10 μM) [%] | Inhibition of the amount of intracellular ATP (%) ([3]; 0.1 μM) | Inhibition of the amount of intracellular ATP (%) ([3]; 1 μM) | Inhibition of the amount of intracellular ATP (%) ([3]; 10 μM) | Inhibition of proliferation (%) ([1]; 0.01 μM) | Inhibition of the amount of intracellular ATP (%) ([3]; 30 μM) |
| --- | --- | --- | --- | --- | --- | --- | --- | --- | --- | --- | --- | --- |
| Cn1c(=O)n(Cc2ccc(F)cc2)c(=O)c2cc(C(=O)c3nc(-c4cccc(C(=O)[O-])c4)c4ccccn34)ccc21.[Na+] [compound 49, Sodium salt of 3-(3-{[3-(4-fluorobenzyl)-1-methyl-2,4-dioxo-1,2,3,4-tetrahydroquinazolin-6-yl]carbonyl}imidazo[1,5-a]pyridin-1-yl)benzoic acid] | 9 | 55 | 81 | 5 | 5 | 6 | 12 | −2 | 14 | 67 |  |  |
| COCn1c(=O)n(Cc2ccc(F)cc2)c(=O)c2cc(C(=O)c3nc(-c4cccc(C(=O)[O-])c4)c4ccccn34)ccc21.[Na+] [compound 71] | 1 | 14 | 85 | 4 | 4 | 5 | 1 | −4 | −1 | 94 | 0 |  |
| CCOC(=O)c1cccc(-c2nc(C(=O)c3ccc4c(c3)c(=O)n(Cc3ccc(F)cc3)c(=O)n4C)n3ccccc23)c1 [compound 79] | 0 | 17 | 71 | 1 | 1 | 2 | 10 | −6 | 7 | 72 | 5 |  |
| Cn1c(=O)n(Cc2cccc(F)c2)c(=O)c2cc(C(=O)c3nc(-c4cccc(C(N)=O)c4)c4ccccn34)ccc21 [compound 108] | −5 | 6 | 22 | 4 | 5 | 4 | 4 |  |  |  | −4 |  |
| Cc1nnc(-c2cccc(-c3nc(C(=O)c4ccc5c(c4)c(=O)n(Cc4ccc(F)cc4)c(=O)n5C)n4ccccc34)c2)o1 [compound 140] | −1 | −7 | 26 | 1 | 1 | 1 | 2 |  |  |  | 0 |  |
| Cn1c(=O)n(CCc2ccc(F)cc2)c(=O)c2cc(C(=O)c3nc(-c4cccc(C(=O)[O-])c4)c4ccccn34)ccc21.[Na+] [compound 148] | 6 | 15 | 81 | 4 | 4 | 4 | 11 | 1 | 8 | 66 | 12 |  |
| CCCn1c(=O)n(CCCC(C)C)c(=O)c2cc(C(=O)c3nc(-c4cccc(C(=O)[O-])c4)c4ccccn34)ccc21.[Na+] [compound 207] | 7 | 45 | 82 | 5 | 4 | 5 | 23 | 10 | 23 | 62 | 2 |  |
| Cc1ccc(Cn2c(=O)c3cc(C(=O)c4nc(-c5cccnc5)c5ccccn45)ccc3n(C)c2=O)s1 [compound 220] | 3 | 13 | 49 | 6 | 5 | 5 | 11 | 6 | 10 | 16 | 4 | 60 |
| CCCn1c(=O)n(CCOc2ccc(F)cc2)c(=O)c2cc(C(=O)c3nc(-c4cccc(C(=O)[O-])c4)c4ccccn34)ccc21.[Na+] [compound 221, Sodium salt of 3-[3-({3-[2-(4-fluorophenoxy)ethyl]-1-propyl-2,4-dioxo-1,2,3,4-tetrahydroquinazolin-6-yl}carbonyl)imidazo[1,5-a]pyridin-1-yl]benzoic acid] | 27 | 80 | 85 | 4 | 5 | 6 | 7 | −2 | 7 | 73 | 5 |  |
| CCCn1c(=O)n(Cc2ccc(C)s2)c(=O)c2cc(C(=O)c3nc(-c4cccc(C(=O)[O-])c4)c4ccccn34)ccc21.[Na+] [compound 224] | 0 | 27 | 82 | 3 | 3 | 4 | 9 | −1 | 20 | 83 | 3 |  |
| Cn1c(=O)n(Cc2ccc(F)cc2)c(=O)c2cc(C(=O)c3ncc4ccccn34)ccc21 [compound 226] | 8 | 28 | 73 | 5 | 6 | 10 | 25 | −1 | 5 | 41 | 3 |  |
| CCCn1c(=O)n(Cc2ccc(F)cc2)c(=O)c2cc(C(=O)c3nc(-c4cnc(N(C)C)nc4)c4ccccn34)ccc21 [compound 232] | 1 | 20 | 79 | 3 | 3 | 4 | 23 | 7 | 8 | 45 | −6 |  |
